Values quoted from earlier work as cited in patent EP4106725B1, “WATER-SOLUBLE SOLID DISPERSION OF QUERCETIN, FORMS THEREOF, A METHOD OF OBTAINING THEREOF, USE OF ALKALINE AGENT, AND A KIT” ("Scientific Industrial Centre "Borshchahivskiy Chemical …, priority 2020, dated 2021).

How the values were obtained:
[1] = crystalline dehydrated state and dihydrate

| acidity constant value pKa1 (hydroxylic group in 4'-position) | acidity constant value pKa2 (hydroxylic group in 7-position) | solubility in water [1] | SMILES | pKa (acidity constant of the alkaline agent) |
| --- | --- | --- | --- | --- |
| 6.62 ± 0.04 | 9.7 ± 0.3 | ~ 1 mg/100 mL | O=c1c(O)c(-c2ccc(O)c(O)c2)oc2cc(O)cc(O)c12 [quercetin, 2-(3,4-dihydroxyphenyl)-3,5,7-trihydroxy-4H-chromen-4-one] |  |
|  |  |  | O=C([O-])[O-].[Na+].[Na+] [Na2CO3, sodium carbonate] | 10.33 |
